Target: T1, SMYD3 (Homo sapiens, UniProt Q9H7B4)
T1 sequence (Q9H7B4 1-428): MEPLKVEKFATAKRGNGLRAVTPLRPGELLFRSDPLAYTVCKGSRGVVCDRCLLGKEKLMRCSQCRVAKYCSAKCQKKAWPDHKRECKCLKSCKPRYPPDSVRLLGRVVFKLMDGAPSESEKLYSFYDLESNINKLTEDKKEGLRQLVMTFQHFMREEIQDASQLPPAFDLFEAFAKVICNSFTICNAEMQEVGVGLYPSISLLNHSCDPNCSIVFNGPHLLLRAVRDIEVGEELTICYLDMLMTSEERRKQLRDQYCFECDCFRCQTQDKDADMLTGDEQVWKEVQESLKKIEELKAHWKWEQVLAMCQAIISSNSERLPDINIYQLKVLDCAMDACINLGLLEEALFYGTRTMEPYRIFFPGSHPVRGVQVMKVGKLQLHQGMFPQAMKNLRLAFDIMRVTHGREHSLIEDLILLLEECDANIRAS
Assay: SMYD3 biochemical assay (MTase-Glo, MAP3K2 peptide substrate)
Conditions: Table 3; MTase assay, MAP3K2 peptide substrate; read-out: IC50
In short: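 Luminescent readout of SAH production (coupled SAH→ATP conversion, MTase-Glo) after SMYD3 reacted 30 min at room temperature with 1.0 µM SAM and 10 µM MAP3K2 peptide, both final. Non-linear regression gave IC50 values.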

Row | IC50 | Compound
1 | 1800 nM | CCCOC(=O)N1CCN(C(=O)c2ccc3c(Cl)c(C)c(-c4ccc(C#N)cc4)nc3c2)CC1 [B037, Propyl 4-(4-chloro-2-(4-cyanophenyl)-3-methylquinoline-7-carbonyl)piperazine-1-carboxylate]
2 | 99 nM | CCCOC(=O)N1CCN(C(=O)c2ccc3c(Cl)c(C)c(-c4cccc(CN)c4)nc3c2)CC1 [B038, Propyl 4-(2-(3-(aminomethyl)phenyl)-4-chloro-3-methylquinoline-7-carbonyl)piperazine-1-carboxylate]
3 | 91 nM | CCCOC(=O)N1CCN(C(=O)c2ccc3c(Cl)cc(-c4cccc(CN)c4)nc3c2)CC1 [B039, Propyl 4-(2-(3-(aminomethyl)phenyl)-4-chloroquinoline-7-carbonyl)piperazine-1-carboxylate]
4 | 3200 nM | CCCOC(=O)N1CCN(C(=O)c2ccc3c(Cl)cc(Nc4ccccc4)nc3c2)CC1 [B040, Propyl 4-(4-chloro-2-(phenylamino)quinoline-7-carbonyl)piperazine-1-carboxylate]
5 | 1200 nM | CCCOC(=O)N1CCN(C(=O)c2ccc3c(Cl)cc(Nc4ccc(OC)cc4)nc3c2)CC1 [B041, Propyl 4-(4-chloro-2-((4-methoxyphenyl)amino)quinoline-7-carbonyl)piperazine-1-carboxylate]
6 | 3100 nM | CCCOC(=O)N1CCN(C(=O)c2ccc3c(Cl)cc(Nc4cccnc4)nc3c2)CC1 [B042, Propyl 4-(4-chloro-2-(pyridin-3-ylamino)quinoline-7-carbonyl)piperazine-1-carboxylate]
7 | 2400 nM | CCCOC(=O)N1CCN(C(=O)c2ccc3c(Cl)c(C)c(-c4cccc([N+](=O)[O-])c4)nc3c2)CC1 [B043, Propyl 4-(4-chloro-3-methyl-2-(3-nitrophenyl)quinoline-7-carbonyl)piperazine-1-carboxylate]
8 | 45 nM | CCCOC(=O)N1CCN(C(=O)c2ccc3c(Cl)c(C)c(-c4cccc(N)c4)nc3c2)CC1 [B044, Propyl 4-(2-(3-aminophenyl)-4-chloro-3-methylquinoline-7-carbonyl)piperazine-1-carboxylate]
9 | 440 nM | CCCOC(=O)N1CCN(C(=O)c2ccc3c(Cl)cc(-c4ccc(OC)cc4)nc3c2)C[C@H]1C [B045, Propyl (R)-4-(4-chloro-2-(4-methoxyphenyl)quinoline-7-carbonyl)-2-methylpiperazine-1-carboxylate]
10 | 260 nM | CCCOC(=O)N1CCN(C(=O)c2ccc3c(Cl)cc(-c4ccc(OC)cc4)nc3c2)CC1 [B046, Propyl 4-(4-chloro-2-(4-methoxyphenyl)quinoline-7-carbonyl)piperazine-1-carboxylate]
11 | 230 nM | CCCOC(=O)N1CCN(C(=O)c2ccc3c(Cl)cc(-c4ccc(OC)cc4)nc3c2)[C@@H](C)C1 [B047, Propyl (S)-4-(4-chloro-2-(4-methoxyphenyl)quinoline-7-carbonyl)-3-methylpiperazine-1-carboxylate]
12 | 3000 nM | CCCOC(=O)N1CCN(C(=O)c2ccc3c(Cl)cc(-c4cc(F)cc(F)c4)nc3c2)CC1 [B048, Propyl 4-(4-chloro-2-(3,5-difluorophenyl)quinoline-7-carbonyl)piperazine-1-carboxylate]
13 | 1000 nM | CCCOC(=O)N1CCN(C(=O)c2ccc3c(Cl)cc(-c4cccc(F)c4)nc3c2)CC1 [B049, Propyl 4-(4-chloro-2-(3-fluorophenyl)quinoline-7-carbonyl)piperazine-1-carboxylate]
14 | 790 nM | CCCOC(=O)N1CCN(C(=O)c2ccc3c(Cl)cc(-c4ccc(N5CCCC5)cc4)nc3c2)CC1 [B050, Propyl 4-(4-chloro-2-(4-(pyrrolidin-1-yl)phenyl)quinoline-7-carbonyl)piperazine-1-carboxylate]
15 | 3200 nM | CCCOC(=O)N1CCN(C(=O)c2ccc3c(Cl)ccnc3c2)CC1 [B051, Propyl 4-(4-chloroquinoline-7-carbonyl)piperazine-1-carboxylate]
16 | 770 nM | CCCOC(=O)N1CCN(C(=O)c2ccc3c(Cl)cc(-c4ccc(C)cc4)nc3c2)C[C@H]1C [B052, Propyl (R)-4-(4-chloro-2-(p-tolyl)quinoline-7-carbonyl)-2-methylpiperazine-1-carboxylate]
